Measured values from patent US6750244B2, “Compounds active at a novel site on receptor-operated calcium channels useful for treatment of neurological disorders and diseases” (NPS Pharmaceuticals, Inc., priority 1993, dated 2004).
“And” between values parts separate entries of the source, which are not always exact repeats. Equal values may be shown once. Where a name gives a salt, the structure may show the parent alone. Read-outs that look alike come from different tables or passages of the source. Marks after values point to notes of the source that are not given here.

Key:
NMDA receptor = test: Inhibition of NMDA/glycine-induced increases in intracellular calcium in cultured rat cerebellar granule cells (RCGC); assay type: cell-based; details: for IC50: read-out: IC50 (μM) vs. NMDA
[1] = tested on: NMDA receptor-ionophore complex (site labeled by [3H]MK-801); test: Inhibition of [3H]MK-801 binding in rat cortical/hippocampal washed membrane preparations; details: for IC50: read-out: IC50 (μM) vs. [3H]MK-801
[2] = NMDA/glycine-induced increases in intracellular calcium, cultured rat cerebellar granule cells
[3] = rat cortical/hippocampal washed membranes

Compound	IC50 (NMDA receptor; [2])	IC50 [1, 3]	also measured
N=C(N)NCCCC(N)C(=O)NCCCNCCCNCCCCCNC(=O)C(CC(N)=O)NC(=O)Cc1ccccc1O (stereo not drawn) [Compound 10]	0.082 µM		% inhibition of [3H]MK-801 binding at the stated concentration (IC50 study incomplete) ([1]; at 80 μM): (57% at 80 μM)^d
CC(N)CC(c1cccc(Cl)c1)c1cccc(Cl)c1 (stereo not drawn) [Compound 43]	0.232 µM	7.5 µM	
COc1ccccc1OC(CCN)c1cccc(F)c1 (stereo not drawn) [Compound 121]	0.656 µM	0.67 µM	
NCCCC(c1ccc(F)cc1)c1ccc(F)cc1 [Compound 104]	7.98 µM	> 10 µM	
NCCC(c1ccccc1)c1cccc(F)c1 (stereo not drawn) [Compound 32, 3-(3-fluorophenyl)-3-phenyl-1-propylamine]	0.284 µM	0.799 µM	
COc1ccccc1C(CCN)c1ccccc1 (stereo not drawn) [Compound 97, 3-(2-methoxyphenyl)-3-phenyl-1-propylamine]	0.41 µM	2.6 µM	
COc1ccc(C(=CCN)c2cccc(F)c2)cc1F [Compound 172, (E))- and (Z)-3-(3-Fluoro-4-methoxy)-3-(3-fluorophenyl)allylamine hydrochloride]	38 µM	37.3 µM	
COc1cccc(C(CCN)c2cccc(Cl)c2)c1 (stereo not drawn) [Compound 136]	0.139 µM	0.706 µM	
NCCC1c2ccccc2C=Cc2ccccc21 [Compound 184]	1.5 µM	1.51 µM and 1.65 µM	
NCCC(c1cccc(O)c1)c1cccc(F)c1 (stereo not drawn) [Compound 101]	0.912 µM	2 µM	
Fc1cccc(C(c2cccc(F)c2)C2CCCNC2)c1 (stereo not drawn) [Compound 111]	0.645 µM and 0.79 µM	0.167 µM	
NCCN(c1ccccc1)c1ccccc1 [Compound 117]	19.6 µM	6 µM	
CCC(CCN)c1cccc(F)c1 (stereo not drawn) [Compound 35]	6.2 µM	25.1 µM	
NCCC(c1cc(F)cc(F)c1)c1cc(F)cc(F)c1 [Compound 95, 3,3-bis(3,5,difluorophenyl)-1-propylamine]	0.311 µM	3 µM	
CN(C)CCC(c1cccc(F)c1)c1cccc(F)c1 [Compound 123, N,N-dimethyl-3,3-bis(3-fluorophenyl)-1-propylamine]	9.6 µM	> 3 µM	
COc1ccccc1CC(=O)NC(Cc1ccccc1)C(=O)NCCCCCNCCCNCCCNC(=O)C(N)CCCNC(=N)N (stereo not drawn) [Compound 6]	0.129 µM	> 100 µM	% inhibition of [3H]MK-801 binding at the stated concentration (IC50 study incomplete) ([1]; at 100 μM): (0% at 100 μM)^d
CCC(NCCC(c1ccccc1)c1ccccc1)c1ccc(Cl)cc1 (stereo not drawn) [Compound 160]	7.35 µM	48.9 µM	
NCCC(Oc1ccccc1)c1cccc(F)c1 (stereo not drawn) [Compound 118]	0.409 µM	0.24 µM	
C[C@H](C(c1ccccc1)c1ccccc1)[C@@H](C)N [Compound 86]	1.2 µM	6 µM	
NCCC(Cc1ccccc1)c1ccccc1 (stereo not drawn) [Compound 125]	1.7 µM	6.7 µM	
CC(NCCC(c1cccc(F)c1)c1cccc(F)c1)c1ccccc1 (stereo not drawn) [Compound 93]	0.486 µM	26.9 µM	
CCC(NCCC(c1ccccc1)c1ccccc1)c1cccc(F)c1 (stereo not drawn) [Compound 164]	0.475 µM	18.3 µM	
NCCC(c1ccsc1)c1cccc(F)c1 (stereo not drawn) [Compound 90]	0.27 µM	1.4 µM	

Compound	IC50 (NMDA receptor; [2])	IC50 [1, 3]	also measured
NCCC1c2ccccc2COc2ccccc21 (stereo not drawn) [Compound 187, 11-(2-Aminoethyl)-11H-10,11-dihydrodibenzo[b,c]oxepine hydrochloride]	1.78 µM		IC50 ([1]; rat cortical/hippocampal washed membranes, hydrochloride): 2.01 µM and 2.06 µM
c1ccc(C(CCNC(c2ccccc2)C2CC2)c2ccccc2)cc1 (stereo not drawn) [Compound 171]	0.31 µM	39.6 µM	
Fc1cccc(C(=C2CCNCC2)c2cccc(F)c2)c1 [Compound 110]	42.7 µM	13.3 µM	
NCCC(c1ccncc1)c1cccc(F)c1 (stereo not drawn) [Compound 79]	12.6 µM	10.2 µM	
CCC(NCCC(c1ccccc1)c1ccccc1)c1ccccc1F (stereo not drawn) [Compound 163]	0.326 µM	10.3 µM	
CN[C@@H](C)CC(c1cccc(F)c1)c1cccc(F)c1 [Compound 69]	0.224 µM	0.366 µM	
NCCOC(c1ccccc1)c1ccccc1 [Compound 88]	2.5 µM	10.6 µM	
CNCC=C(c1cccc(F)c1)c1cccc(F)c1 [Compound 106]	0.767 µM	1.31 µM	
COc1ccccc1CC(=O)NCCCOCCCCOCCCN [Compound 18]	5.1 µM	34 µM	
CCC(NCCC(c1ccccc1)c1ccccc1)c1ccc(C)cc1 (stereo not drawn) [Compound 169]	0.298 µM	26.7 µM	
NCCC(Oc1ccccc1)c1cccc(Cl)c1 (stereo not drawn) [Compound 148]	0.549 µM	0.373 µM	
NCC(Cc1ccccc1)c1ccccc1 (stereo not drawn) [Compound 133]	0.76 µM	3 µM	
CNCCC(c1cccc(F)c1)c1cccc(OC)c1 (stereo not drawn) [Compound 142]	1.01 µM	1.54 µM	
CCC(CN)C(c1cccc(F)c1)c1cccc(F)c1 (stereo not drawn) [Compound 55, 3,3-bis(3-fluorophenyl)-2-ethyl-1-propylamine]	0.035 µM	0.153 µM	
NCC=C(c1ccccc1)c1cccc(F)c1 (racemic) [Compound 107, 3-(3-fluorophenyl)-3-phenyl-prop-2-ene-1-amine]	2.67 µM	3.83 µM	
CC(N)C(C)C(c1cccc(F)c1)c1cccc(F)c1 (stereo not drawn) [Compound 38, 3,3-bis(3-fluorophenyl)-1,2-dimethyl-1-propylamine]	0.407 µM	2.3 µM	
CNCCCC1c2ccccc2C=Cc2ccccc21 [protriptyline, reference compound]	≤ 10 µM	21.4 µM	% inhibition vs. NMDA (NMDA receptor): 73% @ 10 μM
Cc1ccccc1OC(CCN)c1cccc(F)c1 (stereo not drawn) [Compound 181]	0.081 µM	0.632 µM	
COc1ccccc1CC(=O)NC(CC(N)=O)C(=O)NCCCCCNCCCNCCCNC(=O)C(N)CCCNC(=N)N (stereo not drawn) [Compound 5]	0.102 µM	15.2 µM	IC50 (NMDA receptor; TFA salt): 0.07 µM
Fc1cccc(C(CCNCc2ccccc2)c2cccc(F)c2)c1 [Compound 92]	1.3 µM	20.2 µM	
COc1ccc(C(CCN)c2cccc(F)c2)cc1F (racemic) [Compound 173, (R,S)-3-(3-Fluoro-4-methoxy)-3-(3-fluorophenyl)propylamine maleate]	22.9 µM	24.1 µM	
CCC(NCCC(c1cccc(F)c1)c1cccc(F)c1)c1ccccc1 (stereo not drawn) [Compound 94]	0.248 µM	22.6 µM	
CCC(NCCC(c1ccccc1)c1ccccc1)c1ccc(F)cc1 (stereo not drawn) [Compound 165]	0.337 µM	171 µM	

Compound	IC50 (NMDA receptor; [2])	IC50 [1, 3]	also measured
C[C@H](N)[C@H](C)C(c1ccccc1)c1ccccc1 [Compound 87]	0.657 µM	3 µM	
Fc1cccc(C(c2cccc(F)c2)C2CCNCC2)c1 [Compound 112]	28 µM and 28.9 µM	21 µM	
CCC(N)CC(c1cccc(F)c1)c1cccc(F)c1 (stereo not drawn) [Compound 23, 3,3-bis(3-fluorophenyl)-1-ethyl-1-propylamine]	0.267 µM	5.4 µM	
Fc1cccc(C(=C2CCCNC2)c2cccc(F)c2)c1 [Compound 109]	1.95 µM	1.08 µM	
CCC(NCCC(c1ccccc1)c1ccccc1)c1ccc(OC)cc1 (stereo not drawn) [Compound 166]	0.619 µM	36.7 µM	
COc1ccccc1CC(=O)NC(CC(C)C)C(=O)NCCCCCNCCCNCCCNC(=O)C(N)CCCNC(=N)N (stereo not drawn) [Compound 7]	0.163 µM	129 µM	
N=C(N)CC(c1cccc(F)c1)c1cccc(F)c1 [Compound 89]	0.24 µM	1.2 µM	
COc1cccc(/C(=C\CN)c2cccc(F)c2)c1 [Compound 141]	4.26 µM	8.97 µM	
COc1ccc(C(CCN)c2cccc(F)c2)cc1 (stereo not drawn) [Compound 26, 3-(3-fluorophenyl)-3-(4-methoxyphenyl)-1-propylamine]	27 µM	34 µM	
CCC(NCCC(c1ccccc1)c1ccccc1)c1cccc([N+](=O)[O-])c1 (stereo not drawn) [Compound 170]	0.238 µM	57 µM	
CCC(NCCC(c1ccccc1)c1ccccc1)c1cccc(Br)c1 (stereo not drawn) [Compound 161]	0.247 µM	5.62 µM	
CNCCC=C1c2ccccc2CCc2ccccc21 [Nortriptyline, reference compound]			IC50 (NMDA receptor): 3.7 µM; IC50 [1]: 5.67 µM
NCCCOCCCCOCCCNC(=O)Cc1c[nH]c2ccc(Br)cc12 [Compound 16]	5.1 µM	28.8 µM	
CNCCC(Oc1cccc(F)c1)c1cccc(F)c1 (stereo not drawn) [Compound 145]	0.098 µM	0.626 µM	
CNC[C@H](C)C(c1cccc(F)c1)c1cccc(F)c1 [Compound 66]	0.236 µM	1.2 µM	
CC(C)C(CCN)c1cccc(F)c1 (stereo not drawn) [Compound 37]	0.944 µM	11.1 µM	
NCCC(Oc1cccc(Cl)c1)c1cccc(Cl)c1 (stereo not drawn) [Compound 149]	0.085 µM	0.15 µM	
NCCCc1ccccc1-c1cccc(F)c1 [Compound 124]	3.5 µM	14.3 µM	
NCCCOCCCCOCCCNC(=O)Cc1ccc2ccccc2c1 [Compound 17]	9.6 µM	36.3 µM	
CNCCC(c1ccccc1)c1cccc(F)c1 (stereo not drawn) [Compound 108, N-methyl-3-(3-fluorophenyl)-3-phenyl-1-propylamine]	1.06 µM	0.942 µM	
NCC=C(c1cccc(F)c1)c1cccc(F)c1 [Compound 139, 3,3-bis(3-fluorophenyl)-prop-2-ene-1-amine]	1.97 µM and 1.4 µM	5.6 µM	
NCCc1ccccc1Cc1ccccc1 [Compound 128]	0.646 µM		IC50 [1]: 5.5 µM
NCCC(c1cccc(F)c1)c1cccc(Cl)c1 (stereo not drawn) [Compound 30, 3-(3-fluorophenyl)-3-(3-chlorophenyl)-1-propylamine]	0.035 µM	0.407 µM	
